{
  "source": "patent US12428406B2",
  "about": "(PMV Pharmaceuticals, Inc., priority 2019, dated 2025)",
  "data": [
    {"target": "T1, p53 Y220C (Homo sapiens, UniProt P04637, Y220C)", "T1 construct": "The recombinant protein was a truncation mutant containing only amino acids 94-312 of p53; made in house; host or cells: E. coli", "T1 sequence (P04637 94-312, change not shown)": "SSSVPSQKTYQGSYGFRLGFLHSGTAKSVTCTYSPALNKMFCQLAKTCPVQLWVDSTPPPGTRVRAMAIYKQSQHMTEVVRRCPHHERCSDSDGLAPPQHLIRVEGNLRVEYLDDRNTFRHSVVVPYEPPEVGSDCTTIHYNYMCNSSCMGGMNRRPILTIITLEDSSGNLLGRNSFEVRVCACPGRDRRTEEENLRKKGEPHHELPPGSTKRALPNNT", "experiment": "In vitro DNA binding activity assay (HTRF / TR-FRET): stabilization of p53 Y220C and increase of its DNA binding activity", "type": "biochemical", "conditions": "recombinant His-tagged p53 Y220C DNA binding domain (aa 94-312), biotin-labeled consensus DNA, incubated at 27° C. or 29° C. for 60 min", "how_it_was_run": "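Stabilization of the mutant is inferred from increased binding of His-tagged p53 Y220C to a biotin-labeled consensus DNA, detected by HTRF with europium-streptavidin and APC-anti-His antibody. The concentration giving a 50% rise over compound-free binding is reported as SC150.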", "values": [
      {"smiles": "COc1cc(S(C)(=O)=O)ccc1NCC#Cc1cc2c(N[C@H]3CCN(C(C)=O)C[C@H]3F)cccc2n1CC(F)(F)F", "note": "[Compound 863A, 1-[(3R,4S)-3-fluoro-4-[(2-{3-[(4-methanesulfonyl-2-methoxyphenyl)amino]prop-1-yn-1-yl}-1-(2,2,2-trifluoroethyl)-1H-indol-4-yl)amino]piperidin-1-yl]ethan-1-one]", "SC150 (concentration of the compound required to increase the DNA binding activity by 50%)": "+ (+ = 0 μM ≤ SC150 < 0.05 μM)"},
      {"smiles": "COCCOc1cc(S(C)(=O)=O)ccc1NCC#Cc1cc2c(N[C@H]3CC[C@H](N(C)C)CC3)cccc2n1CC(F)(F)F", "note": "[Compound 89A, (1R,4R)-N^4-[2-(3-{[4-methanesulfonyl-2-(2-methoxyethoxy)phenyl]amino}prop-1-yn-1-yl)-1-(2,2,2-trifluoro-ethyl)-1H-indol-4-yl]-N^1,N^1-dimethylcyclo-hexane-1,4-diamine]", "SC150 (concentration of the compound required to increase the DNA binding activity by 50%)": "+ (+ = 0 μM ≤ SC150 < 0.05 μM)"},
      {"smiles": "CCOc1cc(S(C)(=O)=O)ccc1NCC#Cc1cc2c(N[C@H]3CCN(C)C[C@H]3F)cccc2n1CC(F)(F)F", "note": "[Compound 844A]", "SC150 (concentration of the compound required to increase the DNA binding activity by 50%)": "+ (+ = 0 μM ≤ SC150 < 0.05 μM)"},
      {"smiles": "COc1cc(S(C)(=O)=O)ccc1NCC#Cc1cc2c(N[C@H]3CCN(C(C)(C)C)C[C@H]3F)cccc2n1CC(F)(F)F", "note": "[Compound 1069A, N-[(3R,4S)-1-tert-butyl-3-fluoropiperidin-4-yl]-2-{3-[(4-methanesulfonyl-2-methoxyphenyl)amino]prop-1-yn-1-yl}-1-(2,2,2-trifluoroethyl)-1H-indol-4-amine]", "SC150 (concentration of the compound required to increase the DNA binding activity by 50%)": "+ (+ = 0 μM ≤ SC150 < 0.05 μM)"},
      {"smiles": "COc1cc(S(N)(=O)=O)ccc1NCC#Cc1cc2c(NC3CCN(C(C)C)CC3)cccc2n1CC(F)(F)F", "note": "[Compound 543A, 3-methoxy-4-{[3-(4-{[1-(propan-2-yl)piperidin-4-yl]amino}-1-(2,2,2-trifluoroethyl)-1H-indol-2-yl)prop-2-yn-1-yl]amino}benzene-1-sulfonamide]", "SC150 (concentration of the compound required to increase the DNA binding activity by 50%)": "+ (+ = 0 μM ≤ SC150 < 0.05 μM)"},
      {"smiles": "COc1cc(C(=O)O)ccc1NCC#Cc1cc2c(NC3CCN(C4CCOCC4)CC3)cccc2n1CC(F)(F)F", "note": "[Compound 724A, 3-methoxy-4-{1[3-(4-{[1-(oxan-4-yl)piperidin-4-yl]amino}-1-(2,2,2-trifluoroethyl)-1H-indol-2-yl)prop-2-yn-1-yl]amino}benzoic acid]", "SC150 (concentration of the compound required to increase the DNA binding activity by 50%)": "+ (+ = 0 μM ≤ SC150 < 0.05 μM)"},
      {"smiles": "CNC(=O)c1ccc(NCC#Cc2cc3c(N[C@H]4CC[C@H](N)CC4)cccc3n2CC(F)(F)F)c(OC)c1", "note": "[Compound 24A, 3-methoxy-N-methyl-4-{[3-(4-{[(1R,4R)-4-aminocyclo-hexyl]amino}-1-(2,2,2-trifluoroethyl)-1H-indol-2-yl)prop-2-yn-1-yl]amino}benzamide]", "SC150 (concentration of the compound required to increase the DNA binding activity by 50%)": "+ (+ = 0 μM ≤ SC150 < 0.05 μM)"},
      {"smiles": "CCCn1c(C#CCNc2ccc(S(C)(=O)=O)cc2OC)cc2c(N[C@H]3CC[C@H](N4CCOCC4)CC3)cccc21", "note": "[Compound 178A, 2-{3-[(4-methane-sulfonyl-2-methoxy-phenyl)amino]prop-1-yn-1-yl}-1-propyl-N-[(1R,4R)-4-(morpholin-4-yl)cyclohexyl]-1H-indol-4-amine]", "SC150 (concentration of the compound required to increase the DNA binding activity by 50%)": "+ (+ = 0 μM ≤ SC150 < 0.05 μM)"},
      {"smiles": "CNC(=O)c1ccc(NCC#Cc2cc3c(N[C@H]4CC[C@H](N(C)C)CC4)cccc3n2CC(F)(F)F)c(OCCOC)c1", "note": "[Compound 103A, 3-(2-methoxyethoxy)-N-methyl-4-{[3-(4-{[(1R,4R)-4-(dimethylamino)cyclo-hexyl]amino}-1-(2,2,2-trifluoroethyl)-1H-indol-2-yl)prop-2-yn-1-yl]amino}benzamide]", "SC150 (concentration of the compound required to increase the DNA binding activity by 50%)": "+ (+ = 0 μM ≤ SC150 < 0.05 μM)"},
      {"smiles": "COc1cc(S(=O)(=O)NC2CCOCC2)ccc1NCC#Cc1cc2c(NC3CCN(CC(O)CO)CC3)cccc2n1CC(F)(F)F", "note": "(centres unmarked) [Compound 552A, 4-{[3-(4-{[1-(2,3-dihydroxypropyl)piperidin-4-yl]amino}-1-(2,2,2-trifluoroethyl)-1H-indol-2-yl)prop-2-yn-1-yl]amino}-3-methoxy-N-(oxan-4-yl) benzene-1-sulfonamide]", "SC150 (concentration of the compound required to increase the DNA binding activity by 50%)": "+ (+ = 0 μM ≤ SC150 < 0.05 μM)"},
      {"smiles": "CNC(=O)c1ccc(NCC#Cc2cc3c(NC4CCC(C#N)CC4)cccc3n2CC(F)(F)F)c(OC)c1", "note": "(centres unmarked) [Compound 33A, 4-[(3-{4-[(4-cyanocyclohexyl)amino]-1-(2,2,2-trifluoroethyl)-1H-indol-2-yl}prop-2-yn-1-yl)amino]-3-methoxy-N-methylbenzamide]", "SC150 (concentration of the compound required to increase the DNA binding activity by 50%)": "+ (+ = 0 μM ≤ SC150 < 0.05 μM)"},
      {"smiles": "COCCN(C)[C@H]1CC[C@H](Nc2cccc3c2cc(C#CCNc2ccc(S(C)(=O)=O)cc2OCC#N)n3CC(F)(F)F)CC1", "note": "[Compound 149A]", "SC150 (concentration of the compound required to increase the DNA binding activity by 50%)": "+ (+ = 0 μM ≤ SC150 < 0.05 μM)"},
      {"smiles": "COc1cc(S(=O)(=O)N2CCN(C)CC2)ccc1NCC#Cc1cc2c(NC3CCS(=O)(=O)CC3)cccc2n1CC(F)(F)F", "note": "[Compound 1048A, 4-({2-[3-({2-methoxy-4-[(4-methylpiperazin-1-yl)sulfonyl]phenyl}amino)prop-1-yn-1-yl]-1-(2,2,2-trifluoroethyl)-1H-indol-4-yl}amino)-1λ^6-thiane-1,1-dione]", "SC150 (concentration of the compound required to increase the DNA binding activity by 50%)": "+ (+ = 0 μM ≤ SC150 < 0.05 μM)"},
      {"smiles": "CS(=O)(=O)c1ccc(NCC#Cc2cc3c(N[C@H]4CC[C@@H](N5CC6(COC6)C5)CC4)cccc3n2CC(F)(F)F)c(OCC#N)c1", "note": "[Compound 223A, 2-(5-methanesulfonyl-2-{[3-(4-{[(1S,4S)-4-{2-oxa-6-azaspiro[3.3]heptan-6-yl}cyclo-hexyl]amino}-1-(2,2,2-trifluoroethyl)-1H-indol-2-yl)prop-2-yn-1-yl]amino}phenoxy) acetonitrile]", "SC150 (concentration of the compound required to increase the DNA binding activity by 50%)": "+ (+ = 0 μM ≤ SC150 < 0.05 μM)"},
      {"smiles": "COc1cc(S(=O)(=O)N(CCO)CCO)ccc1NCC#Cc1cc2c(NC3CCN(C)CC3)cccc2n1CC(F)(F)F", "note": "[Compound 483A, N,N-bis(2-hydroxyethyl)-3-methoxy-4-[(3-{4-[(1-methylpiperidin-4-yl)amino]-1-(2,2,2-trifluoroethyl)-1H-indol-2-yl}prop-2-yn-1-yl)amino]benzene-1-sulfonamide]", "SC150 (concentration of the compound required to increase the DNA binding activity by 50%)": "+ (+ = 0 μM ≤ SC150 < 0.05 μM)"},
      {"smiles": "COc1cc(C(=O)O)ccc1NCC#Cc1cc2c(N[C@@H]3CCN(CC(=O)N(C)C)C[C@@H]3F)cccc2n1CC(F)(F)F", "note": "[Compound 920A, 4-{[3-(4-{[(3S,4R)-1-[(dimethylcarbamoyl)methyl]-3-fluoropiperidin-4-yl]amino}-1-(2,2,2-trifluoroethyl)-1H-indol-2-yl)prop-2-yn-1-yl]amino}-3-methoxybenzoic acid]", "SC150 (concentration of the compound required to increase the DNA binding activity by 50%)": "+ (+ = 0 μM ≤ SC150 < 0.05 μM)"},
      {"smiles": "CNC(=O)c1ccc(NCC#Cc2cc3c(NC4CCS(=O)(=O)CC4)cccc3n2CC(F)(F)F)c(OC)c1", "note": "[Compound 1049A, 4-[(3-{4-[(1,1-dioxo-1λ^6-thian-4-yl)amino]-1-(2,2,2-trifluoroethyl)-1H-indol-2-yl}prop-2-yn-1-yl)amino]-3-methoxy-N-methylbenzamide]", "SC150 (concentration of the compound required to increase the DNA binding activity by 50%)": "+ (+ = 0 μM ≤ SC150 < 0.05 μM)"},
      {"smiles": "COc1cc(S(N)(=O)=O)ccc1NCC#Cc1cc2c(N[C@H]3CC[C@H](N4CCCC4)CC3)cccc2n1CC(F)(F)F", "note": "[Compound 422A, 3-methoxy-4-{[3-(4-{[(1R,4R)-4-(pyrrolidin-1-yl)cyclohexyl]amino}-1-(2,2,2-trifluoroethyl)-1H-indol-2-yl)prop-2-yn-1-yl]amino}benzene-1-sulfonamide]", "SC150 (concentration of the compound required to increase the DNA binding activity by 50%)": "+ (+ = 0 μM ≤ SC150 < 0.05 μM)"},
      {"smiles": "COc1cc(S(C)(=O)=O)ccc1NCC#Cc1cc2c(NC3CCOCC3)cc(F)cc2n1CC(F)(F)F", "note": "[Compound 997A, 6-fluoro-2-{3-[(4-methanesulfonyl-2-methoxyphenyl)amino]prop-1-yn-1-yl}-N-(oxan-4-yl)-1-(2,2,2-trifluoroethyl)-1H-indol-4-amine]", "SC150 (concentration of the compound required to increase the DNA binding activity by 50%)": "+ (+ = 0 μM ≤ SC150 < 0.05 μM)"},
      {"smiles": "COc1cc(S(C)(=O)=O)ccc1NCC#Cc1cc2c(NC3CCN(C)CC3)cccc2n1CC1CO1", "note": "(centres unmarked) [Compound 517A, 2-{3-[(4-methanesulfonyl-2-methoxyphenyl)amino]prop-1-yn-1-yl}-N-(1-methylpiperidin-4-yl)-1-[(oxiran-2-yl)methyl]-1H-indol-4-amine]", "SC150 (concentration of the compound required to increase the DNA binding activity by 50%)": "+++ (+++ = 0.1 μM ≤ SC150 < 0.2 μM)"},
      {"smiles": "COc1cc(C(C)(C)C#N)ccc1NCC#Cc1cc2c(N[C@H]3CC[C@H](N4CC5(CCOCC5)C4)CC3)cccc2n1CC(F)(F)F", "note": "[Compound 301A, 2-(3-methoxy-4-{[3-(4-{[(1R,4R)-4-{7-oxa-2-azaspiro[3.5]nonan-2-yl}cyclohexyl]amino}-1-(2,2,2-trifluoroethyl)-1H-indol-2-yl)prop-2-yn-1-yl]amino}phenyl)-2-methylpropanenitrile]", "SC150 (concentration of the compound required to increase the DNA binding activity by 50%)": "+ (+ = 0 μM ≤ SC150 < 0.05 μM)"},
      {"smiles": "CCOC(=O)c1ccc(NCC#Cc2cc3c(N[C@@H]4CCN(C(C)C)C[C@@H]4F)cccc3n2CC(F)(F)F)c(OC)c1", "note": "[Compound 821A]", "SC150 (concentration of the compound required to increase the DNA binding activity by 50%)": "+ (+ = 0 μM ≤ SC150 < 0.05 μM)"},
      {"smiles": "COc1cc(C(C)(C)C#N)ccc1NCC#Cc1cc2c(N[C@H]3CC[C@H](N(C)C)CC3)cccc2n1CC(F)(F)F", "note": "[Compound 121A, 2-(3-methoxy-4-{[3-(4-{[(1R,4R)-4-(dimethylamino)cyclohexyl]amino}-1-(2,2,2-trifluoroethyl)-1H-indol-2-yl)prop-2-yn-1-yl]amino}phenyl)-2-methylpropanenitrile]", "SC150 (concentration of the compound required to increase the DNA binding activity by 50%)": "+ (+ = 0 μM ≤ SC150 < 0.05 μM)"}
    ]}
  ]
}
